Experiments:
Male NMRI mice = experiment: Antimanic effects, sensitized amphetamine response in mice; assay type: in vivo, mouse; settings: for induced locomotor activity: amphetamine-sensitised mice, amphetamine challenge 1.25 mg/kg; for baseline activity: tested doses, each alone
Protocol: (§1) In all experiments, animals were maintained on a 12:12 light-dark cycle with lights on at 06:00 h. Food and water was available ad libitum. Animals were taken to the experimental laboratory in the afternoon the day before the experiment was conducted. All drug doses are listed as mg salt pr. kg. Blood-samples were collected within 30 minutes after the testing was finalised.
Repeated intermittent administration of amphetamine causes development of a sensitised response to a subsequent amphetamine challenge. This phenomenon has been proposed to model the chronic and progressive nature of bipolar disorder.
Animals: Male NMRI mice weighing 19-21 g were supplied from Harlan, the Netherland's. The animals were housed 4 pr. cage in makrolon cages (20×35 cm) with two plastic houses and nesting material for enrichment. The animals had 5 days adaptation to the animal-facility prior to the initiation the experiment.
(§2) Equipment: Makrolon cages (20×35 cm) placed in quadrates equipped with 5×8 infrared light sources and photocells spaced by 4 cm were used to record the locomotor activity of the animals. The light beams cross the cage 1.8 cm above the bottom of the cage. Recording of a motility count required interruption of adjacent light beams, thus avoiding counts induced by stationary movements of the mice.
Experimental set-up: The animals were pre-treated with either amphetamine sulphate 2.50 mg/kg (10 ml/kg s.c.) or vehicle for 5 consecutive days. After 11+/−1 days withdrawal period the animals were injected with test-drug or vehicle injection. Lithium chloride was dissolved in distilled water and injected s.c. (6 ml/kg) in dose of 40 mg/kg (0.94 mEq/kg), 30 minutes before testing. Test compound ([2-(6-fluoro-1H-indol-3-ylsulfanyl)benzyl]methyl amine L-(+)-hydrogen tatrate) was dissolved in 10% hydroxypropyl-beta-cyclodextrin and injected s.c. in doses of 0.08 and 0.4 mg/kg 60 minutes before testing. Owing to Test compound's lower affinity to rodent 5HT2A receptor with respect to the human receptor, the tested doses of Test compound was combined with a dose of MDL 100907 ([R-(+)-a-(2,3-dimethoxyphenyl)-1-[2-(4-fluorophenylethyl)]-4-piperidinem ethanol]) that achieves full occupancy of this receptor. 30 minutes before testing the animals were placed in the activity boxes for habituation. After the habituation period the mice were injected with a low dose amphetamine challenge (1.25 mg/kg or saline, 10 ml/kg) and the locomotor activity were measured for 60 minutes. The mice were dosed after the average weight of 16 animals.

Male Wistar rats = experiment: Antimanic effect, amphetamine and chlordiazepoxide induced locomotor activity in rats; assay type: in vivo, rat; settings: for induced locomotor activity: amphetamine 1.2 mg/kg + chlordiazepoxide 10.0 mg/kg; for baseline activity: tested doses
Protocol: Increased locomotor activity induced by an appropriate combination of amphetamine and chlordiazepoxide is a proposed animal model of mania. The induced locomotor activity can be reversed by Lithium.
as §1
Animals: Male Wistar rats weighing 160-175 g were supplied from Harlan, the Netherlands. The animals were housed 4 pr. cage in makrolon cages (20×35 cm) with one plastic house for enrichment. The rats had 5 days adaptation to the animal facility prior to the initiation of the experiment.
as §2, with “a U-frame” for “quadrates”, “equipped longitudinally” for “equipped”, “4” for “5×8”, “photocells” for “photocells spaced by 4 cm”, “4” for “1.8”, “rat. A thin layer of standard bedding material coved the bottom of the cage.” for “mice.”
Chlordiazepoxide (10.0 mg/kg) was dissolved in 10% hydroxypropyl-beta-cyclodextrin and injected s.c. (5 ml/kg) immediately after the amphetamine injection.

Male BALB/cByJ mice = experiment: Mouse marble burying; assay type: in vivo; settings: mice, 0.625, 1.25 and 5 mg/kg s.c., 30 min before 30-minute test
Protocol: (§3) In all experiments, animals were maintained on a 12:12 light-dark cycle with lights on at 0600 h. Food and water were available ad libitum
For rodents, burying functions as a defensive behavior, used to lessen the intensity of a threat or the animal's vulnerability to it. Researchers have investigated defensive burying behaviour using a variety of threatening objects such as electrified prods and unpleasant tasting foods and liquids. Benign objects such as marbles and food pellets also elicit burying behaviour. Mice probably bury harmless objects because they are novel, and are therefore perceived as threatening. Acute administration of both anxiolytic and antidepressant drugs reduce the number of marbles buried in this paradigm.
Male BALB/cByJ mice (22-28 g) were housed 5/cage. Two experiments were performed. Mice received vehicle or 0.625, 1.25, or 5 mg/kg (s.c.) Test compound (see example 12). 30 minutes after injection, animals were placed individually in cages containing 20 marbles (2 rows of 10) on top of 1.5 inches of Aspen bedding. After a 30-minute test period, mice were returned to their home cages, and the number of visible marbles (less than ⅔ covered with bedding) were counted and subtracted from 20 to give number of marbles buried.

Solubility in water = assay type: physicochemical; settings: well-defined 1:1 salts, in words
Male C57B1/6 mice = experiment: Stress-induced hyperthermia; assay type: in vivo, mouse; settings: chlordiazepoxide 10 mg/kg, one hour before
Protocol: as §3
The stress-induced hyperthermia (SIH) test is based upon the principle that, like other mammals, mice have a natural hyperthermic response to stress. In this paradigm, the stressor is having the rectal temperature taken. This physiological response is considered to reflect the anxiety level of the animal, and is attenuated by pretreatment with anxiolytic drugs such as benzodiazepines.
Male C57B1/6 mice (18-21 g) were housed 5/cage until 1 day before the experiment, at which time they were brought to the testing room and singly-housed. Testing was conducted over a two-day period from 9-12 am. Mice received vehicle, chlordiazepoxide (10 mg/kg), or 0.02, 0.08, or 0.32 mg/kg Test compound (s.c.). One hour later, core temperature was measured with a rectal probe (T1) and each animal was returned to its cage. Ten minutes later, a second reading was obtained (T2). The difference between the two readings (T2−T1) was calculated as the measure of stress-induced hyperthermia.

With CNCc1ccccc1Sc1c[nH]c2cc(F)ccc12.O=C(O)C(O)C(O)C(=O)O [alpha form of the L(+) hydrogen tartrate salt] [[2-(6-Fluoro-1H-indol-3-ylsulfanyl)-benzyl]-methyl-amine L-(+)-hydrogen tartrate] as the molecule, how does the “water absorbed when exposed to high relative humidity” value read?
Its value is less than 0.1%.

Which results are given for CNCc1ccccc1Sc1c[nH]c2cc(F)ccc12.O=C(O)C(O)C(O)C(=O)O [Test compound, [2-(6-fluoro-1H-indol-3-ylsulfanyl)benzyl]methyl amine L-(+)-hydrogen tatrate]?
induced locomotor activity (Male NMRI mice; Test compound 0.08 mg/kg and 0.4 mg/kg s.c. alone): no effect; baseline activity in saline pre-treated animals (Male NMRI mice; mice, Test compound 0.08 and 0.4 mg/kg combined with MDL 100907 0.3 mg/kg): significantly lowered; baseline activity (Male NMRI mice; mice): no significant effect; induced locomotor activity (Male Wistar rats; Test compound 0.4 mg/kg combined with MDL 100907 0.3 mg/kg): significant attenuation; induced locomotor activity (Male Wistar rats; Test compound 0.4 mg/kg s.c. alone): tendency to increase the locomotor activity induced activity, but not significantly; baseline activity (Male Wistar rats): no effect; numbers of marbles buried (Male BALB/cByJ mice): significantly and equivalently reduced

With COc1cccc([C@H](O)C2CCN(CCc3ccc(F)cc3)CC2)c1OC [MDL 100907, [R-(+)-a-(2,3-dimethoxyphenyl)-1-[2-(4-fluorophenylethyl)]-4-piperidinemethanol], reference compound] as the molecule, how does the induced locomotor activity (Male NMRI mice; MDL 100907 0.3 mg/kg) read?
The induced locomotor activity was “significantly decreased”.

And the baseline activity (Male NMRI mice; mice)?
The baseline activity was “no significant effect”.

What about the induced locomotor activity (Male Wistar rats; MDL 100907 0.3 mg/kg) of the same molecule?
The induced locomotor activity was “significantly reversed”.

What about the baseline activity (Male Wistar rats) of the same molecule?
The baseline activity was “no effect”.

For CC(C)(O)C(=O)O [2-hydroxy isobutyric acid], which solubility (Solubility in water) is on record?
The solubility was “relatively high solubility”.

With CNC1=Nc2ccc(Cl)cc2C(c2ccccc2)=[N+]([O-])C1 [CDP, chlordiazepoxide, reference compound] as the molecule, how does the “stress-induced hyperthermia (T2−T1)” value (Male C57B1/6 mice) read?
The value was “significantly reduced”.

Which “water absorbed when exposed to high relative humidity” value does the source give for CNCc1ccccc1Sc1c[nH]c2cc(F)ccc12.O=C(O)C(O)C(O)C(=O)O [beta form of the L(+) hydrogen tartrate salt] [[2-(6-Fluoro-1H-indol-3-ylsulfanyl)-benzyl]-methyl-amine L-(+)-hydrogen tartrate] here?
Its value is “about 0.6%”.

Reference: patent US8138220B2, “[2-(6-fluoro-1H-indol-3-ylsulfanyl)benzyl]methyl amine for the treatment of affective disorders” (H. Lundbeck A/S, priority 2006, dated 2012)
